# Results as given in PMC10433430, “The transport of mannitol in Sinorhizobium meliloti is carried out by a broad-substrate polyol transporter SmoEFGK and is affected by the ability to transport and metabolize fructose” (Microbiology, 2023).
# Columns and labels:
# [1] = biological target: T1, SmoEFGK (Sinorhizobium meliloti, UniProt Q92N02); assay: […]-mannitol uptake competition, intact cells; type: cell-based; conditions: 2 µM 14C-mannitol as tracer, 10 µM unlabelled maltitol; mannitol-grown wild-type Rm1021
# T1 construct: gene smoE; native ABC transporter in intact S. meliloti Rm1021 cells grown on mannitol; smoK::Tn5-B20 mutant as control; with ABC transporter, sorbitol/mannitol permease SmoF; ABC transporter, sorbitol/mannitol permease SmoG
# [2] = biological target: T1, SmoEFGK; assay: […]-mannitol uptake competition, intact cells; type: cell-based; conditions: 2 µM 14C-mannitol as tracer, mannitol-grown wild-type Rm1021
# [3] = biological target: T1, SmoEFGK; assay: […]-mannitol uptake, wild type against smoK mutant; type: cell-based; conditions: labelled compound, 2 µM; cells grown in mannitol and glucose
# [4] = biological target: T2, MtlK (Sinorhizobium meliloti, UniProt Q92N07); assay: in-gel dehydrogenase activity stain, native PAGE; type: biochemical; conditions: NAD+, phenazine methosulfate, nitro blue tetrazolium; cell extract
# T2 construct: full length from plasmid pJD02 (mtlK/pCO37) in S. meliloti smoS mutant; cell extract, native gel
# [5] = biological target: T3, SmoS (Sinorhizobium meliloti, UniProt Q92N06); assay: in-gel dehydrogenase activity stain, native PAGE; type: biochemical; conditions: sorbitol as substrate, phenazine methosulfate, nitro blue tetrazolium; cell extract
# T3 construct: full length from plasmid pSMc01500 (smoS/pCO37) in S. meliloti smoS mutant; cell extract, native gel
# [6] = biological target: T4, Frk (Sinorhizobium meliloti, UniProt Q92SC5); assay: PK/LDH-coupled kinase assay, […] nm; type: biochemical; conditions: 6 mM fructose, 3 mM ATP, 6 mM MgCl2, HEPES pH 7.5; partially purified
# T4 construct: N-terminal 6xHis tag, expressed from pMK48 (pRK7813) in S. meliloti Rm1021, partially purified on Ni-NTA
# T4 sequence (Q92SC5 1-308): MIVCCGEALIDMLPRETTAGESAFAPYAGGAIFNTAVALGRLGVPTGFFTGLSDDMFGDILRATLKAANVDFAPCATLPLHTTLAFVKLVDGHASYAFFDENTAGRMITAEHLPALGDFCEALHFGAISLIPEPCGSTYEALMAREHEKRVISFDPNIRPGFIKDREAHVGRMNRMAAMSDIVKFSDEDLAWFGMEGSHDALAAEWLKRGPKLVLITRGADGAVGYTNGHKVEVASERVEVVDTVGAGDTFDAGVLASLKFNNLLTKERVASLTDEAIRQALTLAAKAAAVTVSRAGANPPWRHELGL
# T1 sequence (Q92N03 entry or part of it): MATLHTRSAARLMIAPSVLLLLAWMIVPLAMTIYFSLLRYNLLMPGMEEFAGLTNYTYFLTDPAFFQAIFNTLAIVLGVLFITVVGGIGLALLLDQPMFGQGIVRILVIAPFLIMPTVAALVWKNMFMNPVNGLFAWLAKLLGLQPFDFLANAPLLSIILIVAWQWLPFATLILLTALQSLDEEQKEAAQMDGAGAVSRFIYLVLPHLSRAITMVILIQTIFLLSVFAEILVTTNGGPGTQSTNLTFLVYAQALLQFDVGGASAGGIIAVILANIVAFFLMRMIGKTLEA
# T1 sequence (Q92N04 entry or part of it, further chain): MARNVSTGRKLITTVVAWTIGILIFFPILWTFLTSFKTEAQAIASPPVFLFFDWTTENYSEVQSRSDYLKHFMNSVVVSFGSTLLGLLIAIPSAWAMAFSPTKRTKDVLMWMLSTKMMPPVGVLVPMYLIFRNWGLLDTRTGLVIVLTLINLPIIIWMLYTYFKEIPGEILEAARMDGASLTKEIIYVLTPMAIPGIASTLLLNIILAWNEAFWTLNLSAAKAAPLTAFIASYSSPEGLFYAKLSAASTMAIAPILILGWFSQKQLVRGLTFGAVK
# T1 sequence (Q92N02 entry or part of it): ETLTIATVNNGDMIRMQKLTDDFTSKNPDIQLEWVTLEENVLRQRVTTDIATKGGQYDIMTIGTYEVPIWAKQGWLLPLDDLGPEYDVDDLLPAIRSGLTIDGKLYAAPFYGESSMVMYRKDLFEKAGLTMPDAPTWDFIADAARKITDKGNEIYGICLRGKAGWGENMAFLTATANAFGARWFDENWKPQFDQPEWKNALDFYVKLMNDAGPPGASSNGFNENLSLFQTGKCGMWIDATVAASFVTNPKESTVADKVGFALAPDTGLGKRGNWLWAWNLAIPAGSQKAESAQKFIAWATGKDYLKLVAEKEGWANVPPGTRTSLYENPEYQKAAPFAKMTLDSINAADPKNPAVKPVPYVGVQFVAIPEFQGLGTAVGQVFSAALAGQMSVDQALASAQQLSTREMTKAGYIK
# T1 sequence (Q92N05 entry or part of it, further chain): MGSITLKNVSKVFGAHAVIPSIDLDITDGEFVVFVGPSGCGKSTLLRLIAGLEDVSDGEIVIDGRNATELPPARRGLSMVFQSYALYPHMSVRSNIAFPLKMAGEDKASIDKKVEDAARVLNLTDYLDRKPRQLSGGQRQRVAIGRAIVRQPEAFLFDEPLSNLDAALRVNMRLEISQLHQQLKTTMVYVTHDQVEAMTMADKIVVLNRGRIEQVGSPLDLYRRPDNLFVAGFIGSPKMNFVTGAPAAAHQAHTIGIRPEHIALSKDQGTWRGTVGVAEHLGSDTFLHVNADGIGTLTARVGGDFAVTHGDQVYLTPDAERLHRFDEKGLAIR
# T2 sequence (Q92N07 entry or part of it): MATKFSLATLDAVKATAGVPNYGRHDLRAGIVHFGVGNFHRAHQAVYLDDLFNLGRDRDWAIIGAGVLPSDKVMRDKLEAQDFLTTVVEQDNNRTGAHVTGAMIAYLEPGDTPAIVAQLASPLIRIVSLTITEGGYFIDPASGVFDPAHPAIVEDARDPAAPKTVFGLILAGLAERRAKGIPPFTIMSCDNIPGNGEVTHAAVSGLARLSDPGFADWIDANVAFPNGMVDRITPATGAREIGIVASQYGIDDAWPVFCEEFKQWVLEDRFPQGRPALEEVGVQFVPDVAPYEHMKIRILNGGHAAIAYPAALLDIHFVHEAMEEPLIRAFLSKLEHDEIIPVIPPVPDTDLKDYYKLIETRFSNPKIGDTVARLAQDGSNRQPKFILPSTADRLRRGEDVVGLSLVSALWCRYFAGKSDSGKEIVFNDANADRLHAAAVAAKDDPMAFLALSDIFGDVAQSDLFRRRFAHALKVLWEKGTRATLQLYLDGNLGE
# T3 sequence (Q92N06 entry or part of it): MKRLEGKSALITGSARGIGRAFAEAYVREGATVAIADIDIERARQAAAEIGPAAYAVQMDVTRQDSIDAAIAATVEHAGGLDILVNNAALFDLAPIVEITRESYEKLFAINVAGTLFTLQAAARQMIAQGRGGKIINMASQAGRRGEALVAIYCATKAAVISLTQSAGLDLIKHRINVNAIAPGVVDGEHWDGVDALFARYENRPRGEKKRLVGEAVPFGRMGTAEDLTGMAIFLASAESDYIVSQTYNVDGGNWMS
compound,measurement,setting,value
OC[C@@H](O)[C@@H](O[C@H]1O[C@H](CO)[C@@H](O)[C@H](O)[C@H]1O)[C@H](O)[C@@H](O)CO [maltitol],% reduction of uptake at 10 μM,[1],> 50%
OC[C@@H](O)[C@@H](O)[C@H](O)[C@@H](O)CO [sorbitol],% reduction of uptake at 2 μM,[2]; 2 µM unlabelled sorbitol,~ 50%
OC[C@@H](O)[C@@H](O)[C@H](O)[C@H](O)CO [mannitol],"14C-mannitol uptake, wild type against smoK mutant",[3],SRmD495 cells were severely compromised in their ability to transport mannitol
OC[C@@H](O)C(O)[C@H](O)CO [D-arabitol],"in-gel dehydrogenase activity stain, native PAGE",[4],"if D-arabitol was used as a substrate, bands that are coincident with what mannitol result"
same,% reduction of uptake at 2 μM,[2]; 2 µM unlabelled D-arabitol,~ 50%
NC(=O)c1ccc[n+]([C@@H]2O[C@H](COP(=O)(O)OP(=O)(O)OC[C@H]3O[C@@H](n4cnc5c(N)ncnc54)[C@H](O)[C@@H]3O)[C@@H](O)[C@H]2O)c1 [NAD^+],"in-gel dehydrogenase activity stain, native PAGE",[5],smoS encodes an NAD^+-dependent sorbitol and galactitol dehydrogenase
OCC1(O)OC[C@@H](O)[C@@H](O)[C@@H]1O (stereo partly shown) [fructose],"PK/LDH-coupled kinase assay, 340 nm",[6],partially purified Frk was assayed for kinase activity using fructose as a substrate
